# “And” between values parts separate entries of the source, which are not always exact repeats. Equal values may be shown once. “Also recorded” adds a separate entry of the source. Read-outs that look alike come from different tables or passages of the source.
# Key:
# [1] = test system: Moloney murine leukemia virus (MLV); test: anti-Moloney murine leukemia virus (MLV) plaque test; assay type: cell-based; details: anti-MLV plaque count
# SC-1 cells = test: toxicity TD50 reported with the anti-MLV test; details: Table IV
# [2] = biological target: Moloney Leukemia Virus reverse transcriptase (Moloney murine leukemia virus, UniProt P03355); test: inhibition of MLV associated reverse transcriptase activity
# HIV-1 = details: for Anti-HIV-1 Activity (National Cancer Institute Designation): inactive, moderate or active; for INFECTED RESPONSE % of Control: Table IX; for EC50: Table XI
# 2.2.15 cells = test: toxicity analysis, neutral red dye uptake in 2.2.15 cells; details: triplicate, ± standard deviation
# calf thymus DNA = test: ethidium displacement assay, drug-DNA binding constant, calf thymus DNA; details: relative to ethidium 10^7 M^-1, average of repeat measurements
# [3] = test system: T4 lymphocytes (CEM cell line); test: NCI anti-HIV screen, toxicity control in uninfected cells; assay type: cell-based; details: Table IX
# HBV = test: inhibition of HBV DNA replication in 2.2.15 cell cultures; assay type: cell-based; details: for INT[…] DNA MONO.: 24 hours following the 9th day of treatment; for INT[…] DNA MONO. / HBV VIRION DNA DAY 0 / HBV VIRION DNA DAY 6 / HBV VIRION DNA DAY 9: single well; for effect on HBV replication (in words): tested at 50 and 10 μM, compared with 2',3'-ddC
# [4] = solubility in DMSO, MeOH, H2O; assay type: physicochemical
# poly(dA-dT) = test: ethidium displacement assay, poly(dA-dT); details: relative to ethidium 9.5 × 10^6 M^-1, average of repeat measurements
# [5] = 10 μM, listed as Compound 14, dihydrochloride
# [6] = 50 μM, listed as Compound 14, dihydrochloride
# [7] = 50 μM, zero = undetectable, cutoff 0.1 pg/ml, dihydrochloride
smiles,measurement,setting,value
Cc1cn([C@H]2C[C@H](N=[N+]=[N-])[C@@H](CO)O2)c(=O)[nH]c1=O [AZT],"Activity, MIC50",[1],0.0014 µg/mL
same,"Toxicity, TD50",SC-1 cells,> 100.00 ug/mL^-1
"Cl.Cl.Cn1cc(NC(=O)c2nc(NC(=O)/C=C\C(=O)Nc3cn(C)c(C(=O)Nc4cn(C)c(C(=O)NCCC(=N)N)n4)n3)cn2C)nc1C(=O)NCCC(=N)N [Compound 39, Bis-Lexitropsin]","Activity, MIC50",[1],> 100.00 µg/mL
same,"Toxicity, TD50",SC-1 cells,> 100.00 ug/mL^-1
"O=C(O)C1=CC(=C(c2ccc(O)c(C(=O)O)c2)c2ccc(O)c(C(=O)O)c2)C=CC1=O [Aurintricarboxylic acid, reference compound]",IC50,[2],3.36 µM
Cl.Cl.Cn1cc(NC(=O)c2cc(NC(=O)CCC(=O)Nc3cc(C(=O)Nc4cc(C(=O)NCCC(=N)N)n(C)c4)n(C)c3)cn2C)cc1C(=O)NCCC(=N)N [Compound 5],Anti-HIV-1 Activity (National Cancer Institute Designation),HIV-1,Moderate
same,NEUTRAL RED DYE UPTAKE,2.2.15 cells; 10 μg/ml,99 ± 2 % OF CONTROL
same,NEUTRAL RED DYE UPTAKE,2.2.15 cells; 30 μg/ml,100 ± 1 % OF CONTROL
same,DNA Binding Constant,calf thymus DNA,7.2e+07 M⁻¹
Cl.Cl.Cn1cc(NC(=O)c2cc(NC(=O)/C=C\C(=O)Nc3cc(C(=O)Nc4cc(C(=O)NCCC(=N)N)n(C)c4)n(C)c3)cn2C)cc1C(=O)NCCC(=N)N [Compound 22b],[…] % of Control,[3]; dose 3.02 × 10^-4 Molar,-0.86 % of Control
same,[…] % of Control,[3]; dose 3.03 × 10^-5 Molar,112.05 % of Control
same,[…] % of Control,[3]; dose 3.03 × 10^-6 Molar,103.19 % of Control
same,[…] % of Control,[3]; dose 3.04 × 10^-7 Molar,100.16 % of Control
same,[…] % of Control,[3]; dose 9.54 × 10^-5 Molar,94.16 % of Control
same,[…] % of Control,[3]; dose 9.57 × 10^-4 Molar,5.40 % of Control
same,[…] % of Control,[3]; dose 9.59 × 10^-6 Molar,112.20 % of Control
same,[…] % of Control,[3]; dose 9.61 × 10^-7 Molar,100.02 % of Control
same,INT[…] DNA MONO.,HBV; [5],2.5 pg/μg CELL DNA and 2.2 pg/μg CELL DNA and 2.3 pg/μg CELL DNA and 2.1 pg/μg CELL DNA
same,HBV VIRION DNA DAY 0,HBV; [5],50 pg/ml CULTURE MEDIUM and 61 pg/ml CULTURE MEDIUM and 55 pg/ml CULTURE MEDIUM and 67 pg/ml CULTURE MEDIUM
same,HBV VIRION DNA DAY 6,HBV; [5],110 pg/ml CULTURE MEDIUM and 120 pg/ml CULTURE MEDIUM and 77 pg/ml CULTURE MEDIUM and 87 pg/ml CULTURE MEDIUM
same,HBV VIRION DNA DAY 9,HBV; [5],21 pg/ml CULTURE MEDIUM and 25 pg/ml CULTURE MEDIUM and 22 pg/ml CULTURE MEDIUM and 20 pg/ml CULTURE MEDIUM
same,INT[…] DNA MONO.,HBV; [6],1.9 pg/μg CELL DNA and 2.0 pg/μg CELL DNA and 2.3 pg/μg CELL DNA
same,HBV VIRION DNA DAY 0,HBV; [6],71 pg/ml CULTURE MEDIUM and 89 pg/ml CULTURE MEDIUM and 51 pg/ml CULTURE MEDIUM and 92 pg/ml CULTURE MEDIUM
same,HBV VIRION DNA DAY 6,HBV; [6],26 pg/ml CULTURE MEDIUM and 27 pg/ml CULTURE MEDIUM and 36 pg/ml CULTURE MEDIUM and 37 pg/ml CULTURE MEDIUM
same,HBV VIRION DNA DAY 9,"HBV; 50 μM, zero = undetectable, cutoff 0.1 pg/ml",1 pg/ml CULTURE MEDIUM
same,effect on HBV replication (in words),"HBV; listed as 14, dihydrochloride",just slightly less than that observed with the control; also recorded: potent inhibitors
same,Solubility in DMSO,[4],good
same,Solubility in MeOH,[4]; MeOH,good
same,INFECTED RESPONSE % of Control,HIV-1; dose 3.02 × 10^-4 Molar,-0.29 % of Control
same,INFECTED RESPONSE % of Control,HIV-1; dose 3.03 × 10^-5 Molar,114.32 % of Control
same,INFECTED RESPONSE % of Control,HIV-1; dose 3.03 × 10^-6 Molar,44.03 % of Control
same,INFECTED RESPONSE % of Control,HIV-1; dose 3.04 × 10^-7 Molar,28.75 % of Control
same,INFECTED RESPONSE % of Control,HIV-1; dose 9.54 × 10^-5 Molar,84.02 % of Control
same,INFECTED RESPONSE % of Control,HIV-1; dose 9.57 × 10^-4 Molar,-0.14 % of Control
same,INFECTED RESPONSE % of Control,HIV-1; dose 9.59 × 10^-6 Molar,115.19 % of Control
same,INFECTED RESPONSE % of Control,HIV-1; dose 9.61 × 10^-7 Molar,32.14 % of Control
same,Anti-HIV-1 Activity (National Cancer Institute Designation),HIV-1,Active
same,Kapp,poly(dA-dT),3.8e+07 M⁻¹
same,NEUTRAL RED DYE UPTAKE,2.2.15 cells; 10 μg/ml,99 ± 2 % OF CONTROL
same,NEUTRAL RED DYE UPTAKE,2.2.15 cells; 30 μg/ml,98 ± 1 % OF CONTROL
same,NEUTRAL RED DYE UPTAKE,2.2.15 cells; 100 μg/ml,99 ± 1 % OF CONTROL
same,NEUTRAL RED DYE UPTAKE,2.2.15 cells; 300 μg/ml,85 ± 2 % OF CONTROL
"Cl.Cl.Cn1cc(NC(=O)c2cc(NC(=O)[C@@H]3C[C@H]3C(=O)Nc3cc(C(=O)Nc4cc(C(=O)NCCC(=N)N)n(C)c4)n(C)c3)cn2C)cc1C(=O)NCCC(=N)N [Compound 23b, N,N'-Di(1-methyl-2-[1-methyl-2-carboxamide-(3-proprionamidine)-4-pyrrole]-4-pyrrolyl)transcylcopropyldicarboxamide dihydrochloride]",EC50,HIV-1,3.44 µM
same,Anti-HIV-1 Activity (National Cancer Institute Designation),HIV-1,Moderate
same,Kapp,poly(dA-dT),5.3e+07 M⁻¹
same,ID50 (average ± SD),[2]; 50% inhibitory dose after 120 min incubation,7.0 ± 3.6 µg/mL
"Cl.Cl.Cn1cc(NC(=O)c2cc(NC(=O)CC(=O)Nc3cc(C(=O)Nc4cc(C(=O)NCCC(N)=O)n(C)c4)n(C)c3)cn2C)cc1C(=O)NCCC(N)=O [Compound 4, N,N'-Di(1-methyl-2-[1-methyl-2-carboxamido(3-proprionamide)-4-pyrrole]-4-pyrrolyl)malonamide dihydrochloride]",INT[…] DNA MONO.,"HBV; 10 μM, dihydrochloride",2.3 pg/μg CELL DNA and 2.8 pg/μg CELL DNA and 2.1 pg/μg CELL DNA
same,HBV VIRION DNA DAY 0,"HBV; 10 μM, dihydrochloride",77 pg/ml CULTURE MEDIUM and 61 pg/ml CULTURE MEDIUM and 64 pg/ml CULTURE MEDIUM
same,HBV VIRION DNA DAY 6,"HBV; 10 μM, dihydrochloride",52 pg/ml CULTURE MEDIUM and 55 pg/ml CULTURE MEDIUM and 96 pg/ml CULTURE MEDIUM and 59 pg/ml CULTURE MEDIUM
same,HBV VIRION DNA DAY 9,"HBV; 10 μM, dihydrochloride",73 pg/ml CULTURE MEDIUM and 81 pg/ml CULTURE MEDIUM and 62 pg/ml CULTURE MEDIUM and 50 pg/ml CULTURE MEDIUM
same,INT[…] DNA MONO.,"HBV; 50 μM, dihydrochloride",2.5 pg/μg CELL DNA and 2.8 pg/μg CELL DNA and 2.1 pg/μg CELL DNA and 2.4 pg/μg CELL DNA
same,HBV VIRION DNA DAY 0,"HBV; 50 μM, dihydrochloride",63 pg/ml CULTURE MEDIUM and 66 pg/ml CULTURE MEDIUM and 78 pg/ml CULTURE MEDIUM and 74 pg/ml CULTURE MEDIUM
same,HBV VIRION DNA DAY 6,"HBV; 50 μM, dihydrochloride",86 pg/ml CULTURE MEDIUM and 70 pg/ml CULTURE MEDIUM and 64 pg/ml CULTURE MEDIUM and 88 pg/ml CULTURE MEDIUM
same,HBV VIRION DNA DAY 9,HBV; [7],97 pg/ml CULTURE MEDIUM and 65 pg/ml CULTURE MEDIUM and 61 pg/ml CULTURE MEDIUM and 85 pg/ml CULTURE MEDIUM
same,NEUTRAL RED DYE UPTAKE,2.2.15 cells; 10 μg/ml,99 ± 1 % OF CONTROL
same,NEUTRAL RED DYE UPTAKE,2.2.15 cells; 100 μg/ml,100 ± 1 % OF CONTROL
same,NEUTRAL RED DYE UPTAKE,2.2.15 cells; 300 μg/ml,99 ± 1 % OF CONTROL
same,DNA Binding Constant,calf thymus DNA,3.6e+07 M⁻¹
"Cl.Cl.Cn1cc(NC(=O)c2cc(NC(=O)Nc3cc(C(=O)Nc4cc(C(=O)NCCC(=N)N)n(C)c4)n(C)c3)cn2C)cc1C(=O)NCCC(=N)N [Compound 3, N,N'-Di(1-methyl-2-[1-methyl-2-carboxamido(3-propionamidine)-4-pyrrole]-4-pyrrolyl)urea dihydrochloride]",INT[…] DNA MONO.,"HBV; 10 μM, dihydrochloride",2.8 pg/μg CELL DNA and 2.2 pg/μg CELL DNA and 2.6 pg/μg CELL DNA and 2.5 pg/μg CELL DNA
same,HBV VIRION DNA DAY 0,"HBV; 10 μM, dihydrochloride",57 pg/ml CULTURE MEDIUM and 64 pg/ml CULTURE MEDIUM and 74 pg/ml CULTURE MEDIUM and 60 pg/ml CULTURE MEDIUM
same,HBV VIRION DNA DAY 9,"HBV; 10 μM, dihydrochloride",69 pg/ml CULTURE MEDIUM and 74 pg/ml CULTURE MEDIUM and 94 pg/ml CULTURE MEDIUM and 92 pg/ml CULTURE MEDIUM
same,INT[…] DNA MONO.,"HBV; 50 μM, dihydrochloride",2.9 pg/μg CELL DNA and 2.2 pg/μg CELL DNA and 2.4 pg/μg CELL DNA
same,HBV VIRION DNA DAY 0,"HBV; 50 μM, dihydrochloride",58 pg/ml CULTURE MEDIUM and 68 pg/ml CULTURE MEDIUM and 81 pg/ml CULTURE MEDIUM
same,HBV VIRION DNA DAY 6,"HBV; 50 μM, dihydrochloride",67 pg/ml CULTURE MEDIUM and 44 pg/ml CULTURE MEDIUM and 78 pg/ml CULTURE MEDIUM and 76 pg/ml CULTURE MEDIUM
same,HBV VIRION DNA DAY 9,HBV; [7],16 pg/ml CULTURE MEDIUM and 13 pg/ml CULTURE MEDIUM and 19 pg/ml CULTURE MEDIUM and 10 pg/ml CULTURE MEDIUM
same,effect on HBV replication (in words),HBV,weak inhibitor
same,Solubility in DMSO,[4],good
same,Solubility in H2O,[4]; H2O,good
same,EC50,HIV-1,11.9 µM
same,Anti-HIV-1 Activity (National Cancer Institute Designation),HIV-1,Moderate
same,NEUTRAL RED DYE UPTAKE,2.2.15 cells; 10 μg/ml,99 ± 1 % OF CONTROL
same,NEUTRAL RED DYE UPTAKE,2.2.15 cells; 30 μg/ml,99 ± 1 % OF CONTROL
same,NEUTRAL RED DYE UPTAKE,2.2.15 cells; 100 μg/ml,99 ± 2 % OF CONTROL
same,NEUTRAL RED DYE UPTAKE,2.2.15 cells; 300 μg/ml,82 ± 2 % OF CONTROL
same,DNA Binding Constant,calf thymus DNA,5.6e+07 M⁻¹
"Cn1cc(NC(=O)c2cc(NC(=O)CNC(=N)N)cn2C)cc1C(=O)NCCC(=N)N [Compound 1, reference compound]",Kapp,poly(dA-dT),9.4e+07 M⁻¹
same,DNA Binding Constant,calf thymus DNA,1.9e+07 M⁻¹
